Laboratory results from ChEMBL document CHEMBL2380227, “Ginkgetin induces apoptosis via activation of caspase and inhibition of survival genes in PC-3 prostate cancer cells” (Bioorg Med Chem Lett, 2013).
Active and inactive are the calls of the source.

Experiments:
PC-3 [1] = test: Induction of apoptosis in human PC3 cells assessed as increase in PARP cleavage at 30 uM after 24 hrs by Western blotting in presence of Z-DEVD-FMK; format: functional, cell-based
PC-3 [2] = test: Induction of apoptosis in human PC3 cells assessed as increase in caspase-3 cleavage at 30 uM after 24 hrs by Western blotting in presence of Z-DEVD-FMK; format: functional, cell-based
PC-3 [3] = test: Cell cycle arrest in human PC3 cells assessed as sub-G1 accumulation at 30 uM after 24 hrs by propidium iodide staining-based flow cytometry in presence of Z-DEVD-FMK; format: functional
PC-3 [4] = test: Induction of apoptosis in human PC3 cells assessed as supression of Cyclin-D1 mRNA expression at 15 to 30 uM after 24 hrs by RT-PCR analysis; format: functional, cell-based
PC-3 [5] = test: Induction of apoptosis in human PC3 cells assessed as supression of survivin mRNA expression at 15 to 30 uM after 24 hrs by RT-PCR analysis; format: functional, cell-based
PC-3 [6] = test: Induction of apoptosis in human PC3 cells assessed as supression of Bcl-XL mRNA expression at 15 to 30 uM after 24 hrs by RT-PCR analysis; format: functional, cell-based
PC-3 [7] = test: Induction of apoptosis in human PC3 cells assessed as supression of Bcl-2 mRNA expression at 15 to 30 uM after 24 hrs by RT-PCR analysis; format: functional, cell-based
PC-3 [8] = test: Induction of apoptosis in human PC3 cells assessed as supression of Cyclin-D1 expression at 15 to 30 uM after 24 hrs by Western blotting; format: functional, cell-based
PC-3 [9] = test: Induction of apoptosis in human PC3 cells assessed as supression of survivin expression at 15 to 30 uM after 24 hrs by Western blotting; format: functional, cell-based
PC-3 [10] = test: Induction of apoptosis in human PC3 cells assessed as supression of Bcl-XL expression at 15 to 30 uM after 24 hrs by Western blotting; format: functional, cell-based
PC-3 [11] = test: Induction of apoptosis in human PC3 cells assessed as supression of Bcl-2 expression at 15 to 30 uM after 24 hrs by Western blotting; format: functional, cell-based
PC-3 [12] = test: Induction of apoptosis in human PC3 cells assessed as increase in caspase-3 cleavage at 15 to 30 uM after 24 hrs by immunofluorescence assay relative to control; format: functional, cell-based
PC-3 [13] = test: Induction of apoptosis in human PC3 cells assessed as increase in PARP cleavage at 15 to 30 uM after 24 hrs by Western blotting; format: functional, cell-based
PC-3 [14] = test: Induction of apoptosis in human PC3 cells assessed as increase in caspase-3 cleavage at 15 to 30 uM after 24 hrs by Western blotting; format: functional, cell-based
PC-3 [15] = test: Cell cycle arrest in human PC3 cells assessed as sub-G1 accumulation after 24 hrs by propidium iodide staining-based flow cytometry; format: functional
PC-3 [16] = test: Induction of apoptosis in human PC3 cells assessed as cell shrinkage at 15 to 30 uM after 24 hrs by inverted microscopy; format: functional, cell-based
PC-3 [17] = test: Induction of apoptosis in human PC3 cells assessed as apoptotic bodies at 15 to 30 uM after 24 hrs by inverted microscopy; format: functional, cell-based
PC-3 [18] = test: Cytotoxicity against human PC3 cells after 24 hrs by MTT assay; format: functional, cell-based

Measured: Activity

COc1cc(O)c2c(=O)cc(-c3ccc(OC)c(-c4c(O)cc(O)c5c(=O)cc(-c6ccc(O)cc6)oc45)c3)oc2c1
active: PC-3 [1] | PC-3 [2] | PC-3 [3] | PC-3 [4] | PC-3 [5] | PC-3 [6] | PC-3 [7] | PC-3 [8] | PC-3 [9] | PC-3 [10] | PC-3 [11] | PC-3 [12] | PC-3 [13] | PC-3 [14] | PC-3 [15] Dose-dependent effect | PC-3 [16] | PC-3 [17] | PC-3 [18] Dose-dependent effect
